Patent publication US20090238808A1, “Process for the identification of novel enzyme interacting compounds” (priority 2005, published 2009)

Key:
Experiment in all cases: Kinobeads elution with test compound, mouse brain lysate, MS
Assay type in all cases: binding
Settings in all cases: kinase released from kinobeads by specific elution
CaMKK2 = CaMKK2 (Mus musculus, UniProt Q8C078)
Summary of the method: (§1)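 Proteins captured from mouse brain lysate onto kinobeads are displaced with unmodified compound at 1.0 mM (30 min, 4° C), with 2% DMSO or DMF buffer as the control. Eluted proteins are identified by mass spectrometry after gel separation.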

CSK = CSK (Mus musculus, UniProt P41241)
Summary of the method: as §1

JNK3 = target: T1, JNK3 (Mus musculus, UniProt Q61831)
T1 construct: from tissue; host or cells: mouse brain
Summary of the method: as §1

EphB2 = target: T2, EphB2 (Mus musculus, UniProt P54763)
T2 sequence (P54763 19-986): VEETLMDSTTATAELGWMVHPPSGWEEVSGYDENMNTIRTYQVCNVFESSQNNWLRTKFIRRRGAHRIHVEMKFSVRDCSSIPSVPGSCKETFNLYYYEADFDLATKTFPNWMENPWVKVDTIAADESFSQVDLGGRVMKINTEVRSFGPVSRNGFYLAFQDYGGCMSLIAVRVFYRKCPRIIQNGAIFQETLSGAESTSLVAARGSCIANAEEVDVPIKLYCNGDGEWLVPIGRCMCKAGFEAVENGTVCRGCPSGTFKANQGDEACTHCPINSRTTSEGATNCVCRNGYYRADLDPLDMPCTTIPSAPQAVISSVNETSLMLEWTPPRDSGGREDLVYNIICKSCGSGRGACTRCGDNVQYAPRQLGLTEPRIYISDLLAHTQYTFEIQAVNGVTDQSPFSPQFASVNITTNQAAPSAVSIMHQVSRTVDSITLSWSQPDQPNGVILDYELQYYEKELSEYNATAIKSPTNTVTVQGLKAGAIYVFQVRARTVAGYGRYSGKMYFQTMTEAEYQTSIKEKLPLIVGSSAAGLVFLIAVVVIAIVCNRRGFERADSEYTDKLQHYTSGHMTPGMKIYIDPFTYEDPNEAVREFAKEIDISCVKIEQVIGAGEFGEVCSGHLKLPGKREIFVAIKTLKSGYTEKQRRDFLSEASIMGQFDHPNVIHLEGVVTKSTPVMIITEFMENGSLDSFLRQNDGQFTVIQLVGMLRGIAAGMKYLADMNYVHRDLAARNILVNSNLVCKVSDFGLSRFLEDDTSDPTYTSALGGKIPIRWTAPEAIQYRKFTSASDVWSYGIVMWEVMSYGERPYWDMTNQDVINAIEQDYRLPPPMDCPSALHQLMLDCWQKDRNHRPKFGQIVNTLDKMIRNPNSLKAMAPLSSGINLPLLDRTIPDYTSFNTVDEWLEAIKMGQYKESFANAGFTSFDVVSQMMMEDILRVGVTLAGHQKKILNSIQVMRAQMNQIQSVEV
Summary of the method: as §1

FER = FER (Mus musculus, UniProt P70451)
Summary of the method: as §1

PYK2 = target: T3, PYK2 (Mus musculus, UniProt Q9QVP9)
T3 construct: from tissue; host or cells: mouse brain
Summary of the method: as §1

FAK = FAK (Mus musculus, UniProt P34152)
Summary of the method: as §1

RSK3 (Mus musculus) = test system: T4, RSK3 (Mus musculus)
T4 construct: from tissue; host or cells: mouse brain
Summary of the method: as §1

RSK1 (Mus musculus) = test system: T5, RSK1 (Mus musculus)
T5 construct: from tissue; host or cells: mouse brain
Summary of the method: as §1

Erk1ps5 = target: T6, Erk1ps5 (Mus musculus, UniProt Q63844)
T6 construct: […]; from tissue; host or cells: mouse brain
Summary of the method: as §1

YESps = test system: YESps
Summary of the method: as §1

JNK1 = target: T7, JNK1 (Mus musculus, UniProt Q91Y86)
T7 construct: from tissue; host or cells: mouse brain
Summary of the method: as §1

JNK2 = target: T8, JNK2 (Mus musculus, UniProt Q9WTU6)
T8 construct: from tissue; host or cells: mouse brain
Summary of the method: as §1

T1 sequence (Q61831 whole entry): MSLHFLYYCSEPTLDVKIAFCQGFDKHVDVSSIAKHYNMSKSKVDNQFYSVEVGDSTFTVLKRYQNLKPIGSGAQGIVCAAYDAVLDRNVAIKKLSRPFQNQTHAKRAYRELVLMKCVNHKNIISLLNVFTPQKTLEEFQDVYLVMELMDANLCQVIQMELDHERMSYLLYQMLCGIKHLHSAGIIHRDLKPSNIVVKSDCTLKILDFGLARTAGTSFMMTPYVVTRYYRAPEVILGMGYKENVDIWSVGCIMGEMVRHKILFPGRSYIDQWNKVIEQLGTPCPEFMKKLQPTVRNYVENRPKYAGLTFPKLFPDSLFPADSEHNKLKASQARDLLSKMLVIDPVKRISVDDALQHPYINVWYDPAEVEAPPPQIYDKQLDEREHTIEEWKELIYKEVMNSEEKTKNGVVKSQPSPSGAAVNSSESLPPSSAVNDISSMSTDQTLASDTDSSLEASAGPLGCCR
Sequence of CSK (P41241 whole entry): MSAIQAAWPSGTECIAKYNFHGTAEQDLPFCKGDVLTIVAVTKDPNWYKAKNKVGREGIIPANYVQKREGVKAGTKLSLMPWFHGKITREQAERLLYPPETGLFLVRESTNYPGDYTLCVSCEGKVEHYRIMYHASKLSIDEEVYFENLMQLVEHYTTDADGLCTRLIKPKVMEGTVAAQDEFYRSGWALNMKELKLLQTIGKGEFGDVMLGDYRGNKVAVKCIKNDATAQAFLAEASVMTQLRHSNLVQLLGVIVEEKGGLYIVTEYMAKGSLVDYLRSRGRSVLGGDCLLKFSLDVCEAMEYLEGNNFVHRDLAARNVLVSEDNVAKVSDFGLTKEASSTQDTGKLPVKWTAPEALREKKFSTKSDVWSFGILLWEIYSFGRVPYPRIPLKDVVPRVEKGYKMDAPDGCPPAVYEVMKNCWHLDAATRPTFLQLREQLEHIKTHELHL
T8 sequence (Q9WTU6 whole entry): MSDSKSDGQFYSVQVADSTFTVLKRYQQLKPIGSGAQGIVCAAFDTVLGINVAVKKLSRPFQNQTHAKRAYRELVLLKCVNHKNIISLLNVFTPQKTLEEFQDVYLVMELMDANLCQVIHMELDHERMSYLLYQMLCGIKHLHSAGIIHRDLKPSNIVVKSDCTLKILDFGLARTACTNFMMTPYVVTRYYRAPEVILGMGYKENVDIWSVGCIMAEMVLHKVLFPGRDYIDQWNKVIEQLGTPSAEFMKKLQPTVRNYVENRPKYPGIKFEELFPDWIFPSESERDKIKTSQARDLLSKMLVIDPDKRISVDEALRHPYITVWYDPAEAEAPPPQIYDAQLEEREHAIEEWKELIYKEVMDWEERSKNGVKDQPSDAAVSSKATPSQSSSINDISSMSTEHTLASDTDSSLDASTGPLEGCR
T6 sequence (Q63844 2-380 limits assumed): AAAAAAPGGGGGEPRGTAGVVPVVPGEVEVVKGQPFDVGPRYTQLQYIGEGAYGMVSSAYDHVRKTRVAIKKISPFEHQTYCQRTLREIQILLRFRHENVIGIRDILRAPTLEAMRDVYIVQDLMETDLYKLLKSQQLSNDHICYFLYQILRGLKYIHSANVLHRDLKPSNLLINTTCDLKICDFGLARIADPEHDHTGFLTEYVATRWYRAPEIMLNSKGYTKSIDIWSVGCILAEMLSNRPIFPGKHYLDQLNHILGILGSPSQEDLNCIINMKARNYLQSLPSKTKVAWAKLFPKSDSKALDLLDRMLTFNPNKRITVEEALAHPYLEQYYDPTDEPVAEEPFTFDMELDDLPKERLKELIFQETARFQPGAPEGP
T3 sequence (Q9QVP9 whole entry): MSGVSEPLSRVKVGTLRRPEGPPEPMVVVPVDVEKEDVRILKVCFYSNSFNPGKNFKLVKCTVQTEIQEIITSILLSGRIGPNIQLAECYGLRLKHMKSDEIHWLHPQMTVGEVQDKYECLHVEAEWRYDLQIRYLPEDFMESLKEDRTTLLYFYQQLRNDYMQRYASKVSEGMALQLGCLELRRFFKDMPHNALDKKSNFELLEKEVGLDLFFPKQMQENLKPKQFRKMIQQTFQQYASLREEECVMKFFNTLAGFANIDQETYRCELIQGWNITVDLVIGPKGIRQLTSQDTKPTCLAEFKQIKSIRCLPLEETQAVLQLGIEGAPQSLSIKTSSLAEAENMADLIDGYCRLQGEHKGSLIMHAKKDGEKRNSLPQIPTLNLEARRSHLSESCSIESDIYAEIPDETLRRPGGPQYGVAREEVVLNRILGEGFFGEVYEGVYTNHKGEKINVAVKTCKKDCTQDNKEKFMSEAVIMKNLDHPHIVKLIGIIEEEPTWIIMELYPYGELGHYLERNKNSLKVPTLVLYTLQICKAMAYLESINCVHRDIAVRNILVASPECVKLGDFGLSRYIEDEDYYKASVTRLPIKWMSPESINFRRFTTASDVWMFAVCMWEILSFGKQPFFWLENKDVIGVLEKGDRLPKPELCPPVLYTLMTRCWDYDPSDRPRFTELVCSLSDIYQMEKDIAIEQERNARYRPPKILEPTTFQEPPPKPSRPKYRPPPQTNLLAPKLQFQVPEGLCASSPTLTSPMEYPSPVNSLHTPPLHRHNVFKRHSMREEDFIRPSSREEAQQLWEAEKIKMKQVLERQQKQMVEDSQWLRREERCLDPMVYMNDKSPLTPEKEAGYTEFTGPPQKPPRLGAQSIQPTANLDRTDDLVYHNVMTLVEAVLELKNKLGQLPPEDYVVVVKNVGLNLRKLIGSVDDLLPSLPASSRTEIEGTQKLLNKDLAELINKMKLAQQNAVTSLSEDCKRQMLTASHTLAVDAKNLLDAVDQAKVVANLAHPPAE
Sequence of FER (P70451 whole entry): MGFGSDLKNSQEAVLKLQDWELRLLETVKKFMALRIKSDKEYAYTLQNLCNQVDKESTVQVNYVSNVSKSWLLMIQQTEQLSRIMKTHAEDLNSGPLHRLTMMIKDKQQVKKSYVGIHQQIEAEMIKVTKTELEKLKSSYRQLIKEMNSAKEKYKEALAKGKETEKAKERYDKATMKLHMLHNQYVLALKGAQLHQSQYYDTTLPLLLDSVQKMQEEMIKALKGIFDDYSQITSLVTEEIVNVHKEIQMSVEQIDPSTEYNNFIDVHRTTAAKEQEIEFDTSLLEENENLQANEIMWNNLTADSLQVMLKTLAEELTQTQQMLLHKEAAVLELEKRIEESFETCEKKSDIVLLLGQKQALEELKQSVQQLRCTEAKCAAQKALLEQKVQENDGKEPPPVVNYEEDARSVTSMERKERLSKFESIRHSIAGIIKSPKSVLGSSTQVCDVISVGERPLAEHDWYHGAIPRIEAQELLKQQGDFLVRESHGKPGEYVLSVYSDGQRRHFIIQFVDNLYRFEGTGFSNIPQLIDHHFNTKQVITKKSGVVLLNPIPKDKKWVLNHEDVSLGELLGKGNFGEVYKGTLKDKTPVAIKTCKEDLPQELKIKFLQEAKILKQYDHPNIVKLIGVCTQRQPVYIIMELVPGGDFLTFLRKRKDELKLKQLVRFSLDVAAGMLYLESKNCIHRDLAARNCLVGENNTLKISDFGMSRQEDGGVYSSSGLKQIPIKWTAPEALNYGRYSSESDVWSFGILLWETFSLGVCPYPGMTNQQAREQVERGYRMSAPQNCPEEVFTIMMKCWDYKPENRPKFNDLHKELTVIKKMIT
Sequence of CaMKK2 (Q8C078 whole entry): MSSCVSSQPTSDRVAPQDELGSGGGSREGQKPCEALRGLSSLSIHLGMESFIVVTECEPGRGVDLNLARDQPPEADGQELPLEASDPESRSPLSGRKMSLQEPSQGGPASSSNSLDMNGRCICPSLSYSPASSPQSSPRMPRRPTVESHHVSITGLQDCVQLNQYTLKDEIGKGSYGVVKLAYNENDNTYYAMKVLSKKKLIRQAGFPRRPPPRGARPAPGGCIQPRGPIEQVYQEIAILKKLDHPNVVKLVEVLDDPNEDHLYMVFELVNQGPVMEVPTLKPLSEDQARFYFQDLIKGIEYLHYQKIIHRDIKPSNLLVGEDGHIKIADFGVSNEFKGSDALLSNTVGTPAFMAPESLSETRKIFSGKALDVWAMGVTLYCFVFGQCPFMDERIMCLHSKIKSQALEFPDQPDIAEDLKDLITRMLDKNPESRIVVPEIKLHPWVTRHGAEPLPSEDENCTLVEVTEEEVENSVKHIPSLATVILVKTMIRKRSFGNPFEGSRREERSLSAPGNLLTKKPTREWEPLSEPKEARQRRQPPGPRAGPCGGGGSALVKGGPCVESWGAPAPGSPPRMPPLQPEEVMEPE
T5 sequence (Q9WUT3 whole entry): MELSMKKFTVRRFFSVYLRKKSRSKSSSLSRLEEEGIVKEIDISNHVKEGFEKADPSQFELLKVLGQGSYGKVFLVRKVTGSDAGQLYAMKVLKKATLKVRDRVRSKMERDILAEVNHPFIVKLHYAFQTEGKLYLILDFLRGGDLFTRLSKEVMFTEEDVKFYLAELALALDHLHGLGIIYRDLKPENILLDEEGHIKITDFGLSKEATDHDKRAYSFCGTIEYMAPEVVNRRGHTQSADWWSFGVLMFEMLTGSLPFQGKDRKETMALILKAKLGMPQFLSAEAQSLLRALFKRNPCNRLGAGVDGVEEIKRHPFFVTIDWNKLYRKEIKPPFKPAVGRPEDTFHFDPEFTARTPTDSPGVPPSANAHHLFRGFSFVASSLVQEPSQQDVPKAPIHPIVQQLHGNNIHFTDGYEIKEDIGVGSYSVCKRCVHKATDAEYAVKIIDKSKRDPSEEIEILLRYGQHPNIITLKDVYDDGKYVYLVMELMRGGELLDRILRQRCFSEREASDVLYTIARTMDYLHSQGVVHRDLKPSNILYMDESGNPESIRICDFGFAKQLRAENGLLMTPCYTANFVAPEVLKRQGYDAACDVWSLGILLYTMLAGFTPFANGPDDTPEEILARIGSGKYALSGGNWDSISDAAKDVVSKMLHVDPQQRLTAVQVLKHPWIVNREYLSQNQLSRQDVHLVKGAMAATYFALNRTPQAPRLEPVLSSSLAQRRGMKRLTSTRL

**Q.** What does the source list for `CC(C)[C@H](CO)Nc1nc(Nc2ccc(C(=O)O)c(Cl)c2)c2ncn(C(C)C)c2n1` [Purvalanol B, reference compound]?
**A.** mass spectrometry score, CaMKK2 (CaMKK2): 465; number of identified peptides, CaMKK2 (CaMKK2): 9; mass spectrometry score, CSK (CSK): 492; number of identified peptides, CSK (CSK): 12; mass spectrometry score, JNK3 (JNK3): 284; number of identified peptides, JNK3 (JNK3): 7; mass spectrometry score, EphB2 (EphB2): 1334; number of identified peptides, EphB2 (EphB2): 30; mass spectrometry score, FER (FER): 322; number of identified peptides, FER (FER): 8; mass spectrometry score, PYK2 (PYK2): 1909; number of identified peptides, PYK2 (PYK2): 48; mass spectrometry score, FAK (FAK): 269; number of identified peptides, FAK (FAK): 6; mass spectrometry score, RSK3 (RSK3 (Mus musculus)): 401; mass spectrometry score, RSK1 (RSK1 (Mus musculus)): 1177; number of identified peptides, RSK1 (RSK1 (Mus musculus)): 32; mass spectrometry score, Erk1ps5 (Erk1ps5): 749; number of identified peptides, Erk1ps5 (Erk1ps5): 48; mass spectrometry score, YESps (YESps): 304; number of identified peptides, YESps (YESps): 7; mass spectrometry score, JNK1 (JNK1): 311; number of identified peptides, JNK1 (JNK1): 10; mass spectrometry score, JNK2 (JNK2): 277; number of identified peptides, JNK2 (JNK2): 7
